Results taken from patent publication US20040176361A1, “Fused heterocyclic compound and medicinal use thereof” (priority 2001, published 2004).
Structures can show the parent of a compound that is named as a salt.

Assays:
Recombinant human PARP = Recombinant human PARP (Homo sapiens, UniProt P09874); test: PARP enzyme activity inhibitory action; conditions: PARP inhibitory activity IC50 (nM), 3H-NAD, activated DNA, 25° C. 15 min; average of 3 measurements
Chain of Recombinant human PARP (P09874 whole entry): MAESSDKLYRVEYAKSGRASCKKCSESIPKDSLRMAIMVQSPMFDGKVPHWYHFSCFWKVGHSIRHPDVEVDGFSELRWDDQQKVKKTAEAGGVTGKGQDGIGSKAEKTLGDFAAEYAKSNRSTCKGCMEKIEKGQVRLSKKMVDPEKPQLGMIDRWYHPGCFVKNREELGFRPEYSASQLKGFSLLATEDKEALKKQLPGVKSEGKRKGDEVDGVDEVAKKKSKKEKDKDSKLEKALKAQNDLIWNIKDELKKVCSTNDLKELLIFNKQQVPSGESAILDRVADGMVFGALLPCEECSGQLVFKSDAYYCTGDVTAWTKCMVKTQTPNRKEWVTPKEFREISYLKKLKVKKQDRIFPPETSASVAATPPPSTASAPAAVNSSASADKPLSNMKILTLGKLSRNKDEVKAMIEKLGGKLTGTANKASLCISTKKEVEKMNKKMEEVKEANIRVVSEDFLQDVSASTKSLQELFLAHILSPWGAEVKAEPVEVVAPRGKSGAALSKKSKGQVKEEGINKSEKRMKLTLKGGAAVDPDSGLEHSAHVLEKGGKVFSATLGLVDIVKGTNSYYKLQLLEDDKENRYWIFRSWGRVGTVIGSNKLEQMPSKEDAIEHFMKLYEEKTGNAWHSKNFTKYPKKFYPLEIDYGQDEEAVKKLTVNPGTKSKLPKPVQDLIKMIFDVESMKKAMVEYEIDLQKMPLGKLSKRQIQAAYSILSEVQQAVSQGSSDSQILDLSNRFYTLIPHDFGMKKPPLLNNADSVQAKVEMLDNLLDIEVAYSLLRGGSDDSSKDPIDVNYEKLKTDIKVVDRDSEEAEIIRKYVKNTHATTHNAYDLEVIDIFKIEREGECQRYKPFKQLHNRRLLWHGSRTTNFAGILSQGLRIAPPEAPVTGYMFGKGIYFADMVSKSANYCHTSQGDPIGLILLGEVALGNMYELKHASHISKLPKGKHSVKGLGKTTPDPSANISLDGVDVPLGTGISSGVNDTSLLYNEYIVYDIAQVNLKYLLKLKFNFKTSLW
Description: After incubation at 25° C. for 15 min., the reaction was quenched with 20% trichloroacetic acid, and the resulting acid insoluble fraction was adsorbed on a GF/B filter. The filter was washed several times with 5% trichloroacetic acid, and the radiation dose on the filter was measured by liquid scintillation counter.

SMILES | IC50 (Recombinant human PARP) [nM] | melting point
CN(C)C1CCN(c2cc3ccccc3c(=O)[nH]2)CC1 [Example 3, 3-(4-dimethylaminopiperidine-1-yl)-2H-isoquinolin-1-one] | 70 | 204 to 205 °C (dec.)
CN1CCN(c2cc3c(O)cccc3c(=O)[nH]2)CC1 [Example 19, 5-hydroxy-3-(4-methylpiperazin-1-yl)-2H-isoquinolin-1-one] | 25 | –
CN1CCN(c2cc3c(Cl)cccc3c(=O)[nH]2)CC1 [Example 21, 5-chloro-3-(4-methylpiperazin-1-yl)-2H-isoquinolin-1-one] | 82 | 230 to 231 °C (dec.)
CN1CCN(c2cc3c(Br)cccc3c(=O)[nH]2)CC1 [Example 22, 5-bromo-3-(4-methylpiperazin-1-yl)-2H-isoquinolin-1-one] | 96 | 240 to 241 °C (dec.)
CN(C)C1CCN(c2cc3c(F)cccc3c(=O)[nH]2)CC1 [Example 28, 5-fluoro-3-(4-dimethylaminopiperidin-1-yl)-2H-isoquinolin-1-one] | 63 | –
CN(C)C1CCN(c2cc3c(Cl)cccc3c(=O)[nH]2)CC1 [Example 29, 5-chloro-3-(4-dimethylaminopiperidin-1-yl)-2H-isoquinolin-1-one] | 65 | 210 to 211 °C (dec.)
O=c1[nH]c(C2CN3CCC2CC3)cc2ccccc12 (stereo not shown) [Example 86, 3-(1-azabicyclo[2.2.2]octan-3-yl)-2H-isoquinolin-1-one] | 61 | –
Cc1cccc2c(=O)[nH]c(C3CCNCC3)cc12 [Example 93, 3-(piperidin-4-yl)-5-methyl-2H-isoquinolin-1-one hydrochloride] | 44 | –
CN1CCC(c2cc3c(F)cccc3c(=O)[nH]2)CC1 [Example 106, 5-fluoro-3-(1-methylpiperidin-4-yl)-2H-isoquinolin-1-one] | 40 | 220 to 222 °C
Cc1cccc2c(=O)[nH]c(CCCN(C)C)nc12 [Example 145, 8-methyl-2-[3-(dimethylamino)propyl]-3H-quinazolin-4-one] | 39 | –
Cc1cccc2c(=O)[nH]c(CCCN3CCCC3)nc12 [Example 176, 8-methyl-2-[3-(pyrrolidin-1-yl)propyl]-3H-quinazolin-4-one] | 44 | –
CN1CCC(c2cc3ccc(Cl)cc3c(=O)[nH]2)CC1 [Example 183, 7-chloro-3-(1-methylpiperidin-4-yl)-2H-isoquinolin-1-one] | 44 | 253 to 255 °C
CN1CCC(C2Cc3c(O)cccc3C(=O)N2)CC1 (stereo not shown) [Example 184, 5-hydroxy-3-(1-methylpiperidin-4-yl)-3,4-dihydro-2H-isoquinolin-1-one] | 26 | 216 to 218 °C
CN(C)CCCCc1cc2c(O)cccc2c(=O)[nH]1.Cl [Example 188, 5-hydroxy-3-(4-dimethylaminobutyl)-2H-isoquinolin-1-one hydrochloride] | 57 | 231 to 233 °C
O=c1[nH]c(N2CCN(Cc3ccccc3)C(CO)C2)cc2ccccc12 (stereo not shown) [Example 197, 3-(4-benzyl-3-hydroxymethylpiperazin-1-yl)-2H-isoquinolin-1-one] | – | 176 to 177 °C
O=c1[nH]c(N2CCNC(CO)C2)cc2c(Br)cccc12 (stereo not shown) [Example 198, 5-bromo-3-(3-hydroxymethylpiperazin-1-yl)-2H-isoquinolin-1-one] | – | > 230 °C (dec.)

SMILES | IC50 (Recombinant human PARP) [nM] | melting point
CN1CCN(c2cc3c(Br)cccc3c(=O)[nH]2)CC1CO (stereo not shown) [Example 199, 5-bromo-3-(3-hydroxymethyl-4-methylpiperazin-1-yl)-2H-isoquinolin-1-one] | – | 200 to 202 °C
O=c1[nH]c(N2CCC(N3CCCCC3)CC2)cc2ccccc12 [Example 200, 3-(4-piperidinopiperidin-1-yl)-2H-isoquinolin-1-one] | – | > 200 °C (dec.)
CN(C)C(=O)C1CCCN(c2cc3ccccc3c(=O)[nH]2)C1 (stereo not shown) [Example 202, 3-(3-(dimethylcarbamoyl)piperidin-1-yl)-2H-isoquinolin-1-one] | – | 187 to 188 °C
CC(C)CN1CCN(c2cc3ccccc3c(=O)[nH]2)CC1CO (stereo not shown) [Example 203, 3-(3-hydroxymethyl-4-isobutylpiperazin-1-yl)-2H-isoquinolin-1-one] | – | 130 to 132 °C
CN(C)CC1CCCN(c2cc3ccccc3c(=O)[nH]2)C1 (stereo not shown) [Example 206, 3-(3-(dimethylaminomethyl)piperidin-1-yl)-2H-isoquinolin-1-one] | – | 141 to 143 °C
COCOc1ccc2cc(C3CCN(C)CC3)[nH]c(=O)c2c1 [Example 210, 7-methoxymethyloxy-3-(1-methylpiperidin-4-yl)-2H-isoquinolin-1-one] | – | 200 to 202 °C
O=c1[nH]c(CCCN2CCCC2)cc2ccccc12 [Example 213, 3-(3-(pyrrolidin-1-yl)propyl)-2H-isoquinolin-1-one] | 57 | 117 to 119 °C
CN1CCN(c2cc3c(Cl)cccc3c(=O)[nH]2)CC1CO (stereo not shown) [Example 214, 5-chloro-3-(3-hydroxymethyl-4-methylpiperazin-1-yl)-2H-isoquinolin-1-one] | 45 | 212 to 214 °C
Cc1cccc2c(=O)[nH]c(CCN3CCCCC3)cc12 [Example 218, 5-methyl-3-[2-(piperidin-1-yl)ethyl]-2H-isoquinolin-1-one] | 26 | –
O=c1[nH]c(CCN2CCCCC2)cc2ccccc12 [Example 219, 3-[2-(piperidin-1-yl)ethyl]-2H-isoquinolin-1-one] | 63 | –
O=c1[nH]c(CCN2CCCC2)cc2ccccc12 [Example 220, 3-[2-(pyrrolidin-1-yl)ethyl]-2H-isoquinolin-1-one] | 77 | –
Cc1cccc2c(=O)[nH]c(CCCN3CCCCC3)cc12 [Example 228, 5-methyl-3-[3-(piperidin-1-yl)propyl]-2H-isoquinolin-1-one] | 72 | –
Cc1cccc2c(=O)[nH]c(C3CCN(C)C3)cc12 (stereo not shown) [Example 248, 5-methyl-3-(1-methylpyrrolidin-3-yl)-2H-isoquinolin-1-one] | 68 | –
O=c1[nH]c(N2CCN(CCO)CC2)cc2ccccc12 [Example Y-3079, reference compound] | 79 | –
Cc1cccc2c(=O)[nH]c(N3CCN(C)CC3)nc12 [Pfizer, reference compound] | 240 | –

Results, then the molecule that gave them:

IC50 (Recombinant human PARP) [nM] | melting point | SMILES
26 | – | Cc1cccc2c(=O)[nH]c([C@@H]3CCN4CCCC4C3)cc12 (single isomer, unassigned) [Example 225, 5-methyl-3-(octahydroindolizin-7-yl)-2H-isoquinolin-1-one ¾ water adduct]
31 | – | Cc1cccc2c(=O)[nH]c([C@@H]3CCN4CCCC4C3)cc12 (single isomer, unassigned) [Example 226, 5-methyl-3-(octahydroindolizin-7-yl)-2H-isoquinolin-1-one ½ water adduct]
42 | – | CN1CCN(c2cc3ccccc3c(=O)[nH]2)CC1CO (stereo not shown) [Example 4, 3-(3-hydroxymethyl-4-methylpiperazin-1-yl)-2H-isoquinolin-1-one]
56 | – | COc1cccc2c(=O)[nH]c(N3CCN(C)CC3)cc12 [Example 18, 5-methoxy-3-(4-methylpiperazin-1-yl)-2H-isoquinolin-1-one]
75 | 238 to 239 °C (dec.) | CN1CCN(c2cc3c(F)cccc3c(=O)[nH]2)CC1 [Example 20, 5-fluoro-3-(4-methylpiperazin-1-yl)-2H-isoquinolin-1-one]
47 | – | CN(C)CCCc1cc2ccccc2c(=O)[nH]1 [Example 85, 3-(3-(dimethylamino)propyl)-2H-isoquinolin-1-one]
87 | 258 to 260 °C (dec.) | CN1CCC(c2[nH]c(=O)c3ccccc3c2-c2ccccc2)CC1 [Example 98, 3-(1-methylpiperidin-4-yl)-4-phenyl-2H-isoquinolin-1-one ⅕ water adduct]
45 | 239 to 242 °C | COc1cccc2c(=O)[nH]c(C3CCN(C)CC3)cc12 [Example 107, 5-methoxy-3-(1-methylpiperidin-4-yl)-2H-isoquinolin-1-one]
58 | 230 to 231 °C (dec.) | Cc1cccc2c(=O)[nH]c(C3CN4CCC3CC4)nc12 (stereo not shown) [Example 138, 2-(1-azabicyclo[2.2.2]octan-3-yl)-8-methyl-3H-quinazolin-4-one]
36 | – | Cc1cccc2c(=O)[nH]c(N3CCN(C)C(CO)C3)cc12 (stereo not shown) [Example 153, 3-(3-hydroxymethyl-4-methylpiperazin-1-yl)-5-methyl-2H-isoquinolin-1-one]
52 | – | Cc1cccc2c(=O)[nH]c(CCN3CCCCC3)nc12 [Example 165, 8-methyl-2-(2-piperidinoethyl)-3H-quinazolin-4-one]
39 | 222 to 223 °C | CN1CC=C(c2cc3ccccc3c(=O)[nH]2)CC1 [Example 190, 3-(1-methyl-1,2,3,6-tetrahydropyridin-4-yl)-2H-isoquinolin-1-one]
– | 143 to 144 °C | O=c1[nH]c(N2CCCC(CO)C2)cc2ccccc12 (stereo not shown) [Example 201, 3-(3-hydroxymethylpiperidin-1-yl)-2H-isoquinolin-1-one]
54 | 216 to 217 °C | CN1CCN(c2cc3c(F)cccc3c(=O)[nH]2)CC1CO (stereo not shown) [Example 205, 5-fluoro-3-(3-hydroxymethyl-4-methylpiperazin-1-yl)-2H-isoquinolin-1-one]
42 | – | Cc1cccc2c(=O)[nH]c(CCN3CCCC3)cc12 [Example 221, 5-methyl-3-[2-(pyrrolidin-1-yl)ethyl]-2H-isoquinolin-1-one]
36 | – | Cc1cccc2c(=O)[nH]c(CCCN3CCCC3)cc12 [Example 222, 5-methyl-3-[3-(pyrrolidin-1-yl)propyl-1-yl]-2H-isoquinolin-1-one]
5100 | – | O=c1[nH]c(N2CCCCC2)cc2ccccc12 [Example Y-3010, reference compound]
